For 30 substances, target mRNA inhibition results are on record in the OligoGym collection.

Where “and” joins values, the source holds several entries; their conditions need not be identical. Equal entries are not always repeated. HELM strings list units from the 5' end as sugar, base in round brackets, then linkage (d deoxyribose, r ribose, m 2'-O-methyl, p phosphodiester). Methylation of C is not given here. [moe] = 2'-O-(2-methoxyethyl) (MOE); [cEt] = constrained ethyl (cEt); [sp] = phosphorothioate linkage

The target in the series is HBV. The settings on record: ASO.

Take “RNA1{[moe](G)[sp].[moe](G)[sp].[moe](C)[sp].[moe](A)[sp].[moe](T)[sp].d(A)[sp].d(G)[sp].d(C)[sp].d(A)[sp].d(G)[sp].d(C)[sp].d(A)[sp].d(G)[sp].d(G)[sp].[moe](A)[sp].[moe](T)[sp].[moe](G)}$$$$V2.0”: the target mRNA inhibition (HepG2, 0.07 µM) amounted to 0%.
Still for that read-out and setting: under “RNA1{[moe](C)[sp].[moe](C)[sp].[moe](A)[sp].d(C)[sp].d(T)[sp].d(G)[sp].d(A)[sp].d(A)[sp].d(C)[sp].d(A)[sp].d(A)[sp].d(A)[sp].d(T)[sp].[cEt](G)[sp].[cEt](G)[sp].[cEt](C)}$$$$V2.0” stands 77% and 78%.
The same measure, in the same setting: under “RNA1{[moe](A)[sp].[moe](C)[sp].[moe](C)[sp].[moe](A)[sp].[moe](A)[sp].d(T)[sp].d(T)[sp].d(T)[sp].d(A)[sp].d(T)[sp].d(G)[sp].d(C)[sp].d(C)[sp].d(T)[sp].[moe](A)[sp].[moe](C)[sp].[moe](A)}$$$$V2.0” stands 33% and 18%; under “RNA1{[moe](C)[sp].[cEt](A)[sp].[cEt](C)[sp].d(A)[sp].d(G)[sp].d(C)[sp].d(T)[sp].d(T)[sp].d(G)[sp].d(G)[sp].d(A)[sp].d(G)[sp].d(G)[sp].[cEt](C)[sp].[cEt](T)[sp].[moe](T)}$$$$V2.0”, 11% and 0%.
Same read-out and setting: then “RNA1{[moe](G)[sp].[cEt](A)[sp].d(A)[sp].d(G)[sp].d(T)[sp].d(C)[sp].d(C)[sp].d(A)[sp].d(C)[sp].d(C)[sp].d(A)[sp].d(C)[sp].[cEt](G)[sp].[moe](A)[sp].[cEt](G)[sp].[moe](T)}$$$$V2.0”, with 43% and 50%.
Regarding “RNA1{[moe](G)[sp].[moe](A)[sp].[moe](A)[sp].[moe](C)[sp].d(T)[sp].d(G)[sp].d(G)[sp].d(A)[sp].d(G)[sp].d(C)[sp].d(C)[sp].d(A)[sp].d(C)[sp].[moe](C)[sp].[moe](A)[sp].[moe](G)[sp].[moe](C)}$$$$V2.0”, the target mRNA inhibition (HepG2, 0.07 µM) is 69% and 49%.
Same read-out and setting: then “RNA1{[moe](A)[sp].[moe](A)[sp].[moe](C)[sp].[moe](C)[sp].d(A)[sp].d(C)[sp].d(T)[sp].d(G)[sp].d(A)[sp].d(A)[sp].d(C)[sp].d(A)[sp].d(A)[sp].[moe](A)[sp].[moe](T)[sp].[moe](G)[sp].[moe](G)}$$$$V2.0”, with 57% and 55%.
With “RNA1{[moe](A)[sp].[moe](A)[sp].[moe](G)[sp].[moe](C)[sp].[moe](G)[sp].d(A)[sp].d(A)[sp].d(G)[sp].d(T)[sp].d(G)[sp].d(C)[sp].d(A)[sp].d(C)[sp].d(A)[sp].[moe](C)[sp].[moe](G)}$$$$V2.0”, for the setting “HepG2, 0.07 µM”, the target mRNA inhibition was 71% and 68%.
Same read-out and setting: under “RNA1{[moe](G)[sp].[moe](C)[sp].[moe](A)[sp].[moe](C)[sp].d(T)[sp].d(A)[sp].d(G)[sp].d(T)[sp].d(A)[sp].d(A)[sp].d(A)[sp].d(C)[sp].d(T)[sp].[moe](G)[sp].[moe](A)[sp].[moe](G)}$$$$V2.0” stands 52% and 53%; under “RNA1{[moe](A)[sp].[cEt](G)[sp].[cEt](A)[sp].d(A)[sp].d(G)[sp].d(A)[sp].d(T)[sp].d(G)[sp].d(A)[sp].d(G)[sp].d(G)[sp].d(C)[sp].d(A)[sp].[cEt](T)[sp].[cEt](A)[sp].[moe](G)}$$$$V2.0”, 64% and 63%; under “RNA1{[moe](G)[sp].[moe](T)[sp].[moe](G)[sp].[moe](C)[sp].d(A)[sp].d(G)[sp].d(A)[sp].d(G)[sp].d(G)[sp].d(T)[sp].d(G)[sp].d(A)[sp].d(A)[sp].[moe](G)[sp].[moe](C)[sp].[moe](G)[sp].[moe](A)}$$$$V2.0”, 62% and 54%.
Still for that read-out and setting: under “RNA1{[moe](G)[sp].[moe](A)[sp].[moe](G)[sp].[moe](G)[sp].[moe](C)[sp].d(A)[sp].d(T)[sp].d(A)[sp].d(G)[sp].d(C)[sp].d(A)[sp].d(G)[sp].d(C)[sp].d(A)[sp].[moe](G)[sp].[moe](G)}$$$$V2.0” stands 44% and 39%; under “RNA1{[moe](T)[sp].[moe](G)[sp].[moe](C)[sp].[moe](A)[sp].d(G)[sp].d(A)[sp].d(G)[sp].d(G)[sp].d(T)[sp].d(G)[sp].d(A)[sp].d(A)[sp].d(G)[sp].[moe](C)[sp].[moe](G)[sp].[moe](A)[sp].[moe](A)}$$$$V2.0”, 68% and 58%.
“RNA1{[moe](A)[sp].[moe](A)[sp].[moe](G)[sp].[cEt](C)[sp].d(G)[sp].d(A)[sp].d(A)[sp].d(G)[sp].d(T)[sp].d(G)[sp].d(C)[sp].d(A)[sp].d(C)[sp].[cEt](A)[sp].[moe](C)[sp].[moe](G)[sp].[moe](G)}$$$$V2.0”: the target mRNA inhibition came out at 28% (HepG2, 0.009375 µM); 27% (HepG2, 0.01875 µM); 42% (HepG2, 0.0375 µM); 59% (HepG2, 0.075 µM); 81% (HepG2, 0.15 µM); 88% (HepG2, 0.3 µM).
Consider “RNA1{[moe](A)[sp].[moe](G)[sp].d(A)[sp].d(T)[sp].d(G)[sp].d(A)[sp].d(G)[sp].d(G)[sp].d(C)[sp].d(A)[sp].d(T)[sp].[moe](A)[sp].[moe](G)[sp].[moe](C)[sp].[moe](A)[sp].[moe](G)[sp].[moe](C)}$$$$V2.0”, for which the target mRNA inhibition (HepG2, 0.07 µM) was 76% and 78%.
Same read-out and setting: under “RNA1{[moe](G)[sp].[cEt](T)[sp].[cEt](G)[sp].d(C)[sp].d(A)[sp].d(G)[sp].d(A)[sp].d(G)[sp].d(G)[sp].d(T)[sp].d(G)[sp].d(A)[sp].d(A)[sp].[cEt](G)[sp].[cEt](C)[sp].[moe](G)}$$$$V2.0” stands 67% and 70%; under “RNA1{[moe](C)[sp].[moe](A)[sp].[moe](G)[sp].[moe](A)[sp].[moe](G)[sp].d(G)[sp].d(T)[sp].d(G)[sp].d(A)[sp].d(A)[sp].d(G)[sp].d(C)[sp].d(G)[sp].d(A)[sp].[moe](A)[sp].[moe](G)}$$$$V2.0”, 60% and 57%; under “RNA1{[moe](C)[sp].[moe](G)[sp].[moe](C)[sp].[moe](A)[sp].[moe](G)[sp].d(T)[sp].d(A)[sp].d(T)[sp].d(G)[sp].d(G)[sp].d(A)[sp].d(T)[sp].d(C)[sp].d(G)[sp].[moe](G)[sp].[moe](C)}$$$$V2.0”, 64% and 57%.
Regarding “RNA1{[moe](A)[sp].[moe](G)[sp].[moe](A)[sp].d(T)[sp].d(G)[sp].d(A)[sp].d(G)[sp].d(G)[sp].d(C)[sp].d(A)[sp].d(T)[sp].d(A)[sp].d(G)[sp].[cEt](C)[sp].[cEt](A)[sp].[cEt](G)}$$$$V2.0”, the target mRNA inhibition (HepG2, 0.07 µM) is 50% and 70%.
As for “RNA1{[moe](A)[sp].[cEt](G)[sp].[cEt](A)[sp].d(G)[sp].d(G)[sp].d(T)[sp].d(G)[sp].d(A)[sp].d(A)[sp].d(G)[sp].d(C)[sp].d(G)[sp].d(A)[sp].[cEt](A)[sp].[cEt](G)[sp].[moe](T)}$$$$V2.0”, the target mRNA inhibition (HepG2, 0.07 µM) was 68% and 74%.
On the same count and under the same terms, then “RNA1{[moe](A)[sp].[cEt](G)[sp].d(G)[sp].d(C)[sp].d(A)[sp].d(T)[sp].d(A)[sp].d(G)[sp].d(C)[sp].d(A)[sp].d(G)[sp].d(C)[sp].[cEt](A)[sp].[moe](G)[sp].[cEt](G)[sp].[moe](A)}$$$$V2.0”, with 66% and 52%.
As to “RNA1{[moe](T)[sp].[cEt](G)[sp].d(A)[sp].d(G)[sp].d(G)[sp].d(C)[sp].d(A)[sp].d(T)[sp].d(A)[sp].d(G)[sp].d(C)[sp].d(A)[sp].[cEt](G)[sp].[moe](C)[sp].[cEt](A)[sp].[moe](G)}$$$$V2.0”, under “HepG2, 0.07 µM”, the target mRNA inhibition was 69% and 75%.
The same measure, in the same setting: under “RNA1{[moe](A)[sp].[moe](C)[sp].[moe](C)[sp].[moe](A)[sp].d(C)[sp].d(T)[sp].d(G)[sp].d(A)[sp].d(A)[sp].d(C)[sp].d(A)[sp].d(A)[sp].d(A)[sp].[moe](T)[sp].[moe](G)[sp].[moe](G)[sp].[moe](C)}$$$$V2.0” stands 60% and 61%.
Same read-out and setting: under “RNA1{[moe](T)[sp].[moe](G)[sp].[moe](A)[sp].[moe](G)[sp].[moe](G)[sp].d(C)[sp].d(A)[sp].d(T)[sp].d(A)[sp].d(G)[sp].d(C)[sp].d(A)[sp].d(G)[sp].d(C)[sp].[moe](A)[sp].[moe](G)}$$$$V2.0” stands 48% and 51%.
Same read-out and setting: then “RNA1{[moe](C)[sp].[moe](T)[sp].[moe](A)[sp].d(G)[sp].d(T)[sp].d(A)[sp].d(A)[sp].d(A)[sp].d(C)[sp].d(T)[sp].d(G)[sp].d(A)[sp].[moe](G)[sp].[moe](C)[sp].[moe](C)[sp].[moe](A)}$$$$V2.0”, with 66% and 60%; and “RNA1{[moe](A)[sp].[moe](G)[sp].d(A)[sp].d(G)[sp].d(A)[sp].d(A)[sp].d(G)[sp].d(T)[sp].d(C)[sp].d(C)[sp].d(A)[sp].[moe](C)[sp].[moe](C)[sp].[moe](A)[sp].[moe](C)[sp].[moe](G)[sp].[moe](A)}$$$$V2.0”, with 39% and 27%; and “RNA1{[moe](C)[sp].[cEt](C)[sp].[cEt](G)[sp].d(C)[sp].d(A)[sp].d(G)[sp].d(T)[sp].d(A)[sp].d(T)[sp].d(G)[sp].d(G)[sp].d(A)[sp].d(T)[sp].[cEt](C)[sp].[cEt](G)[sp].[moe](G)}$$$$V2.0”, with 63% and 52%.
Turning to “RNA1{[moe](A)[sp].[moe](G)[sp].d(A)[sp].d(G)[sp].d(G)[sp].d(T)[sp].d(G)[sp].d(A)[sp].d(A)[sp].d(G)[sp].d(C)[sp].[moe](G)[sp].[moe](A)[sp].[moe](A)[sp].[moe](G)[sp].[moe](T)[sp].[moe](G)}$$$$V2.0”, the target mRNA inhibition (HepG2, 0.07 µM) stood at 56%.
Consider “RNA1{[moe](A)[sp].[moe](G)[sp].[moe](T)[sp].d(T)[sp].d(C)[sp].d(C)[sp].d(G)[sp].d(C)[sp].d(A)[sp].d(G)[sp].d(T)[sp].d(A)[sp].[moe](T)[sp].[moe](G)[sp].[moe](G)[sp].[moe](A)}$$$$V2.0”, for which the target mRNA inhibition (HepG2, 0.07 µM) is 46% and 58%.
Still for that read-out and setting: then “RNA1{[moe](G)[sp].[moe](A)[sp].[moe](A)[sp].[moe](C)[sp].[moe](T)[sp].d(G)[sp].d(G)[sp].d(A)[sp].d(G)[sp].d(C)[sp].d(C)[sp].d(A)[sp].d(C)[sp].d(C)[sp].[moe](A)[sp].[moe](G)[sp].[moe](C)}$$$$V2.0”, with 41% and 50%.
